In patent publication US20140275094A1, “METHOD FOR TREATING PULMONARY ARTERIAL HYPERTENSION IN A PATIENT NOT HAVING IDIOPATHIC PULMONARY FIBROSIS” (GILEAD SCIENCES, INC., priority 2012, published 2014):

Tests used:
[1] = tested on: human hepatocytes; conditions: cited from earlier work
[2] = MGPS disproportionality analysis of FDA AERS spontaneous reports of hepatic events; set-up: species or system human; key to EBGM: ratio of observed to expected reports (independence assumption); conditions: for Count / EBGM: FDA AERS, 18 months post approval; for EB05: lower bound of 90% confidence interval of EBGM
Protocol: A disproportionality analysis was performed for ambrisentan and bosentan using information from the FDA Adverse Events Reporting System (AERS) spontaneous reporting database. […] The value of the EBGM reflects the ratio of the number of observed reports of a drug-adverse event combination with the number expected under an assumption of independence between the drugs and events in the database. […] In order to reduce the occurrence of false positives due to age group or gender influence, the safety reports were stratified by subject age group and gender. For each drug, the AERS data were analyzed for the 18-month period following the respective approval dates for ambrisentan and bosentan: 15 Jun. 2007 to 14 Dec. 2008 for ambrisentan and 21 Nov. 2001 to 20 May 2003 for bosentan. […] This threshold is generally accepted as a signal of disproportional reporting (Szarfman, et al., “Use of screening algorithms and computer systems to efficiently signal higher-than-expected combinations of drugs and events in the US FDA's spontaneous reports database.” Drug Safety 25, 381-392 (2002)). The comparator dataset in the calculations for ambrisentan and bosentan included data for all other drugs in the AERS database.

[3] = tested on: patients with PAH (WHO Group 1); assay: ARIES-2 12-week placebo-controlled study; format: in vivo, human
Protocol: Two 12-week, randomized, double-blind, placebo-controlled, multicenter studies were conducted in 393 patients with PAH (WHO Group 1). The two studies were identical in design except for the doses of ambrisentan and the geographic region of the investigational sites. ARIES-1 (Ambrisentan in Pulmonary Arterial Hypertension, Randomized, Double-Blind, Placebo-Controlled, Multicenter, Efficacy Studies) compared once-daily doses of 5 mg and 10 mg ambrisentan to placebo, […] In both studies, ambrisentan or placebo was added to current therapy, which could have included a combination of anticoagulants, diuretics, calcium channel blockers, or digoxin, but not epoprostenol, treprostinil, iloprost, bosentan, or sildenafil. The primary study endpoint was 6-minute walk distance. In addition, clinical worsening, WHO functional class, dyspnea, and SF-36® Health Survey were assessed.
Patients had idiopathic or heritable PAH (64%) or PAH associated with connective tissue diseases (32%), HIV infection (3%), or anorexigen use (1%). There were no patients with PAH associated with congenital heart disease.
Patients had WHO functional class I (2%), II (38%), III (55%), or IV (5%) symptoms at baseline. The mean age of patients was 50 years, 79% of patients were female, and 77% were Caucasian.
Clinical Worsening: Time to clinical worsening of PAH was defined as the first occurrence of death, lung transplantation, hospitalization for PAH, atrial septostomy, study withdrawal due to the addition of other PAH therapeutic agents or study withdrawal due to early escape. Early escape was defined as meeting two or more of the following criteria: a 20% decrease in the 6-minute walk distance; an increase in WHO functional class; worsening right ventricular failure; rapidly progressing cardiogenic, hepatic, or renal failure; or refractory systolic hypotension.

[4] = molecular target: T1, ETA receptor (Homo sapiens, UniProt P25101); conditions: read-out: affinity for the ETA receptor; cited from earlier work
T1 sequence (P25101 21-427): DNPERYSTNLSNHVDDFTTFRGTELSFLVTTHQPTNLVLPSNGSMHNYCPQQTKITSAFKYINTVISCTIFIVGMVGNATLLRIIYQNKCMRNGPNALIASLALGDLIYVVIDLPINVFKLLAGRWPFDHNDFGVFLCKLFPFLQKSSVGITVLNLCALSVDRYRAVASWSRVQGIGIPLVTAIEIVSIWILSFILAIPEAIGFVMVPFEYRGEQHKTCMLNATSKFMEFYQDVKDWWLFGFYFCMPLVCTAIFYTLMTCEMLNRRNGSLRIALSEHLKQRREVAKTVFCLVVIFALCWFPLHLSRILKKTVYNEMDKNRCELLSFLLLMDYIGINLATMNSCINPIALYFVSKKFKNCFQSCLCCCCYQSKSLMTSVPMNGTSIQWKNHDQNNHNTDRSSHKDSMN

[5] = all clinical trials combined; cited from earlier work
[6] = tested on: patients with IPF, with or without pulmonary hypertension (WHO Group 3); assay: Randomized controlled study in idiopathic pulmonary fibrosis; format: in vivo
[7] = Blood alkaline phosphate increased
[8] = Blood bilirubin unconjugated increased
[9] = ARIES-2, 5 mg (N = 64), 12 weeks
[10] = ARIES-2, ambrisentan N = 127, 12-week treatment, intention-to-treat

COc1ccccc1Oc1c(NS(=O)(=O)c2ccc(C(C)(C)C)cc2)nc(-c2ncccn2)nc1OCCO [Bosentan]
effect on hepatobiliary transporter activity [1]: decreased transporter activity to the greatest extent | Count ([2]; ALT increased): 57 | EBGM ([2]; ALT increased): 11.57 | Count ([2]; AST increased): 60 | EBGM ([2]; AST increased): 12.52 | Count ([2]; Ascites): 8 | EBGM ([2]; Ascites): 3.60 | Count ([2]; Bilirubin conjugated increased): 5 | EBGM ([2]; Bilirubin conjugated increased): 13.91 | Count [2, 7]: 46 | EBGM [2, 7]: 18.79 | Count ([2]; Blood bilirubin increased): 37 | EBGM ([2]; Blood bilirubin increased): 18.75 | Count [2, 8]: 2 | EBGM [2, 8]: 3.28 | Count ([2]; Hepatic congestion): 5 | EBGM ([2]; Hepatic congestion): 13.18 | Count ([2]; Hepatic encephalopathy): 1 | EBGM ([2]; Hepatic encephalopathy): 1.00 | Count ([2]; Hepatic enzyme increased): 0 | Count ([2]; Hepatic failure): 3 | EBGM ([2]; Hepatic failure): 1.07 | Count ([2]; Hepatic function abnormal): 2 | EBGM ([2]; Hepatic function abnormal): 0.91 | Count ([2]; Hepatic infarction): 1 | EBGM ([2]; Hepatic infarction): 1.44 | Count ([2]; Hepatic necrosis): 1 | EBGM ([2]; Hepatic necrosis): 0.94 | Count ([2]; Hepatic steatosis): 0 | Count ([2]; Hepatitis acute): 1 | EBGM ([2]; Hepatitis acute): 1.04 | Count ([2]; Hepatitis): 5 | EBGM ([2]; Hepatitis): 1.63 | Count ([2]; Hepatomegaly): 1 | EBGM ([2]; Hepatomegaly): 0.79 | Count ([2]; Hepatosplenomegaly): 2 | EBGM ([2]; Hepatosplenomegaly): 2.09 | Count ([2]; INR increased): 9 | EBGM ([2]; INR increased): 3.08 | Count ([2]; Liver disorder): 1 | EBGM ([2]; Liver disorder): 0.56 | Count ([2]; Liver function test abnormal): 38 | EBGM ([2]; Liver function test abnormal): 9.59 | Count ([2]; Prothrombin time prolonged): 2 | EBGM ([2]; Prothrombin time prolonged): 1.22 | Count ([2]; Spider naevus): 1 | EBGM ([2]; Spider naevus): 1.46 | Count ([2]; Transaminases increased): 5 | EBGM ([2]; Transaminases increased): 3.58 | EB05 ([2]; blood alkaline phosphate increased): 14.6 | EB05 ([2]; liver function test abnormal): 6.9

COC(c1ccccc1)(c1ccccc1)[C@H](Oc1nc(C)cc(C)n1)C(=O)O [Ambrisentan, (25)-2-[(4,6-dimethylpyrimidin-2-yl)oxy]-3-methoxy-3,3-diphenylpropanoic acid]
Placebo-adjusted mean change from baseline in 6-minute walk distance [3, 9]: 32 meters | Placebo-adjusted median change from baseline in 6-minute walk distance [3, 9]: 30 meters | Mean change from baseline in 6-minute walk distance ([3]; ARIES-2, 5 mg (N = 64), 12 weeks, mean ± SD): 22 ± 83 meters | Clinical worsening, % [3, 10]: 6% | Clinical worsening, no. [3, 10]: 8 | Time to clinical worsening, hazard ratio ([3]; ARIES-2, versus placebo): 0.30 | Ki [4]: ~0.012 nM | effect on hepatobiliary transporter activity [1]: less potent | Count ([2]; ALT increased): 3 | EBGM ([2]; ALT increased): 1.55 | Count ([2]; AST increased): 3 | EBGM ([2]; AST increased): 1.63 | Count ([2]; Ascites): 2 | EBGM ([2]; Ascites): 1.80 | Count ([2]; Bilirubin conjugated increased): 0 | Count [2, 7]: 1 | EBGM [2, 7]: 0.86 | Count ([2]; Blood bilirubin increased): 0 | Count [2, 8]: 0 | Count ([2]; Hepatic congestion): 0 | Count ([2]; Hepatic encephalopathy): 0 | Count ([2]; Hepatic enzyme increased): 3 | EBGM ([2]; Hepatic enzyme increased): 1.67 | Count ([2]; Hepatic failure): 0 | Count ([2]; Hepatic function abnormal): 0 | Count ([2]; Hepatic infarction): 0 | Count ([2]; Hepatic necrosis): 0 | Count ([2]; Hepatic steatosis): 1 | EBGM ([2]; Hepatic steatosis): 1.06 | Count ([2]; Hepatitis acute): 0 | Count ([2]; Hepatitis): 1 | EBGM ([2]; Hepatitis): 0.89 | Count ([2]; Hepatomegaly): 0 | Count ([2]; Hepatosplenomegaly): 0 | Count ([2]; INR increased): 1 | EBGM ([2]; INR increased): 0.78 | Count ([2]; Liver disorder): 2 | EBGM ([2]; Liver disorder): 1.43 | Count ([2]; Liver function test abnormal): 10 | EBGM ([2]; Liver function test abnormal): 6.11 | Count ([2]; Prothrombin time prolonged): 1 | EBGM ([2]; Prothrombin time prolonged): 1.29 | Count ([2]; Spider naevus): 0 | Count ([2]; Transaminases increased): 2 | EBGM ([2]; Transaminases increased): 1.96 | EB05 ([2]; liver function test abnormal): 3.5 | 1-year risk of significant aminotransferase abnormalities [5]: < 3% | patients who died ([6]; ambrisentan n=329, placebo 4%): 8% | patients with a respiratory hospitalization ([6]; ambrisentan n=329, placebo 6%): 13% | patients with a decrease in FVC/DLCO ([6]; ambrisentan n=329, placebo 12%): 17% | risk of disease progression or death versus placebo ([6]; study terminated after 34 weeks): greater risk of disease progression or death
